From paper PMC10927086, “Effects of structurally distinct human HDAC6 and HDAC6/HDAC8 inhibitors against S. mansoni larval and adult worm stages” (PLOS Neglected Tropical Diseases, 2024)
Like-named read-outs stand apart in the source and are kept apart here.

Columns and labels:
[1] = tested on: S. mansoni eggs laid by worm pairs; experiment: Egg counts and egg maturation staging (Vogel and Prata) in vitro; assay type: cell-based, Schistosoma mansoni; conditions: for percent of eggs that are viable at the given maturation stage at 20 µM / percent of eggs that are viable at the given maturation stage at 50 µM: Schistosoma mansoni
Text: The eggs produced by worm pairs in vitro were counted at day 3 upon treatment using an inverted Leica DM IL microscope (Leica Microsystems, Wetzlar, Germany). Images were captured with a BX41 Olympus (Olympus, Tokyo, Japan) microscope and a brightfield objective 10× served by an Olympus DP23 microscope digital camera and visualized using “CellSens Entry” software (version 3.1.1). Egg maturation morphological score was assigned based on the Vogel and Prata’s staging system of egg maturation previously reported.
Therefore at 72 h upon worm pairs treatment the eggs were counted and classified by microscopic observation according to the Vogel and Prata staging system of egg maturation and grouped as immature (stages I and II), intermediate/developed (stages III–V), viable or damaged eggs.
Panel B. Histograms represent the percentages of eggs at different maturation stages +/- SEM counted at 72 h after treatment; 5–6 microscopy images of at least 3 independent experiments were analyzed. Filled red triangles indicate viable eggs at stages I–II (immature); empty red triangles indicate damaged/morphological abnormal eggs at stages I–II (immature); filled red arrows indicate viable eggs at stages III–V (intermediate/developed); empty red arrows indicate damaged/morphological abnormal eggs at stages III-V; ef, egg fragments; sp, sperm cells; oc, oocyte. Scale Bars = 200 μm.

[2] = tested on: adult S. mansoni worm pairs (ovary, ootype, vitellarium, gut); experiment: Carmine-red staining and confocal laser scanning microscopy of adult worm pairs; assay type: cell-based, Schistosoma mansoni; conditions: 72 h
Protocol: Carmine Red staining was performed as previously described. […] Images were collected as a single stack.
To characterize the phenotypic alterations induced by compound treatment in more detail, carmine-red staining, followed by confocal laser scanning microscopy (CLSM) analysis was performed (Fig 5). Sublethal doses of compounds were chosen to preserve the overall parasite viability and pairing. For each compound, 3–5 couples in two independent experiments were analyzed and images of ootype, ovary, vitellarium, testis, gut, and parenchyma were recorded. […] The vitellarium retains a preserved structure in all analyzed samples. […] Accumulation of carmine-red positive particle aggregates was also present in the lumen of the NF2839-treated male worms (Fig 5).
Fig 5 Confocal microscopy of carmine-red stained adult worm pairs treated with quinolone-based HDAC inhibitors. […] The ovary, ootype and gut are shown. Immature oocytes (io), mature oocytes (mo), ootype (ot) and gastrodermis (ga) are labeled. In the Figure, red filled triangles indicate degenerated mo; empty red triangles indicate egg fragments in the ootypes; asterisks indicate deformed egg in the ootype and carmine red aggregates in the gut lumen, filled red arrows indicate the ga in the gut. Scale bars: 50 μm.

[3] = 72 h, NF2839 5 and 10 μM, NF2836 20 and 50 μM

SMILES: Cn1c(=O)c(OCc2ccc(C(=O)NO)cc2)c(C2CCCCC2)c2ccccc21 [NF2836]
- % Stage I/II damaged ([1]; 20 µM, exp.1): 97.1%
- %Stage III/IV/V damaged ([1]; 20 µM, exp.1): 0%
- Stage I/II damaged counts ([1]; 20 µM, exp.1): 608
- Stage I/II viable (egg counts) ([1]; 20 µM, exp.1): 18
- Stage II/IV/V viable (egg counts) ([1]; 20 µM, exp.1): 0
- Stage III/IV/V damaged (egg counts) ([1]; 20 µM, exp.1): 0
- egg counts ([1]; 20 µM, exp.1): 626
- % Stage I/II damaged ([1]; 20 µM, exp.2): 16.0%
- %Stage III/IV/V damaged ([1]; 20 µM, exp.2): 0%
- Stage I/II damaged counts ([1]; 20 µM, exp.2): 76
- Stage I/II viable (egg counts) ([1]; 20 µM, exp.2): 378
- Stage II/IV/V viable (egg counts) ([1]; 20 µM, exp.2): 19
- Stage III/IV/V damaged (egg counts) ([1]; 20 µM, exp.2): 0
- % Stage I/II damaged ([1]; 20 µM, exp.3): 79.8%
- %Stage III/IV/V damaged ([1]; 20 µM, exp.3): 0%
- Stage I/II damaged counts ([1]; 20 µM, exp.3): 408
- Stage I/II viable (egg counts) ([1]; 20 µM, exp.3): 103
- Stage II/IV/V viable (egg counts) ([1]; 20 µM, exp.3): 0
- Stage III/IV/V damaged (egg counts) ([1]; 20 µM, exp.3): 0
- egg counts ([1]; 20 µM, exp.3): 511
- % Stage I/II damaged, Media ([1]; 20 µM, mean of experiments): 64.3%
- %Stage III/IV/V damaged, Media ([1]; 20 µM, mean of experiments): 0%
- % Stage I/II damaged ([1]; 50 µM, exp.1): 99.8%
- %Stage III/IV/V damaged ([1]; 50 µM, exp.1): 0%
- Stage I/II damaged counts ([1]; 50 µM, exp.1): 448
- Stage I/II viable (egg counts) ([1]; 50 µM, exp.1): 1
- egg counts ([1]; 50 µM, exp.1): 449
- % Stage I/II damaged ([1]; 50 µM, exp.2): 92.6%
- %Stage III/IV/V damaged ([1]; 50 µM, exp.2): 0%
- Stage I/II damaged counts ([1]; 50 µM, exp.2): 287
- Stage I/II viable (egg counts) ([1]; 50 µM, exp.2): 23
- egg counts ([1]; 50 µM, exp.2): 310
- % Stage I/II damaged, Media ([1]; 50 µM, mean of experiments): 96.2%
- %Stage III/IV/V damaged, Media ([1]; 50 µM, mean of experiments): 0%
- egg damage / viability [1, 3]: eggs appeared seriously damaged and not viable
- egg maturation (Vogel and Prata staging) [1, 3]: essentially all eggs were arrested in stage I/II
- number of eggs laid by worm pairs [1, 3]: did not observe a decrease in the number of eggs
- percent of eggs that are viable at the given maturation stage at 20 µM ([1]; 20 µM, exp.1, read-out: % Stage I/II viable): 2.9%
- percent of eggs that are viable at the given maturation stage at 20 µM ([1]; 20 µM, exp.1, read-out: %Stage II/IV/V viable): 0%
- percent of eggs that are viable at the given maturation stage at 20 µM ([1]; 20 µM, exp.2, read-out: % Stage I/II viable): 79.6%
- percent of eggs that are viable at the given maturation stage at 20 µM ([1]; 20 µM, exp.2, read-out: %Stage II/IV/V viable): 4%
- percent of eggs that are viable at the given maturation stage at 20 µM ([1]; 20 µM, exp.3, read-out: % Stage I/II viable): 20.2%
- percent of eggs that are viable at the given maturation stage at 20 µM ([1]; 20 µM, exp.3, read-out: %Stage II/IV/V viable): 0%
- percent of eggs that are viable at the given maturation stage at 20 µM ([1]; 20 µM, mean of experiments, read-out: % Stage I/II viable, Media): 34.2%
- percent of eggs that are viable at the given maturation stage at 20 µM ([1]; 20 µM, mean of experiments, read-out: %Stage II/IV/V viable, Media): 1.3%
- percent of eggs that are viable at the given maturation stage at 50 µM ([1]; 50 µM, exp.1, read-out: % Stage I/II viable): 0.223%
- percent of eggs that are viable at the given maturation stage at 50 µM ([1]; 50 µM, exp.1, read-out: %Stage II/IV/V viable): 0%
- percent of eggs that are viable at the given maturation stage at 50 µM ([1]; 50 µM, exp.2, read-out: % Stage I/II viable): 7.4%
- percent of eggs that are viable at the given maturation stage at 50 µM ([1]; 50 µM, exp.2, read-out: %Stage II/IV/V viable): 0%
- percent of eggs that are viable at the given maturation stage at 50 µM ([1]; 50 µM, mean of experiments, read-out: % Stage I/II viable, Media): 3.8%
- percent of eggs that are viable at the given maturation stage at 50 µM ([1]; 50 µM, mean of experiments, read-out: %Stage II/IV/V viable, Media): 0%
- samples with decrease of cellularity in the ovary mature compartment ([2]; 50 uM): 5/11
- ootype content ([2]; higher concentration (NF2836 50 μM, NF2839 10 μM)): either an empty ootype or no properly developed eggs and/or egg fragments
- gut morphology ([2]; higher concentration (NF2836 50 μM, NF2839 10 μM), all worms, in particular males): gut dilation with a dramatic decrease in the number of surface amplification and lumen epithelial thinning
- ootype containing damaged eggs ([2]; lower concentrations (NF2836 20 μM, NF2839 5 μM)): 5/7
- overall morphology of the ovary ([2]; sublethal doses): seemed not to be affected
